What was measured:
[1] = kinetics, FIG. 2A of MacDiarmid et al. Cancer Cell (2007); cited from earlier work
[2] = tested on: Canine brain tumor cells BCD-1, -8, -9 and J3T; test: MTS cell proliferation assay, doxorubicin sensitivity, canine cells; assay type: cell-based; details: 1.7 nM to 8,600 nM, 72 hours
Method: (§1) Canine brain tumor cells BCD-1, -8, -9 and J3T and human brain tumor cell line U87-MG were seeded into 96 well plates at 5×10^3 cells per well. Cells were incubated overnight at 37° C., 5% CO2.
(§2) Doxorubicin was added to cells in […], of relevant media containing serum at concentrations ranging from 1.7 nM to 8,600 nM and incubated for 72 hours.
(§3) To measure the cytotoxic effect of Doxorubicin an MTS cell proliferation assay was performed. To each well 20 uL of MTS solution (CellTitre 96® Aqueous One MTS reagent—Promega) was added and incubated in the dark for 30 minutes. Absorbance was read at a wavelength of 490 nm. Data was analysed in Prism GraphPad (La Jolla, CA, USA) using non-linear regression and a 4-parameter curve fit.

[3] = tested on: human brain tumor cell line U87-MG; test: MTS cell proliferation assay, doxorubicin sensitivity, human cells; assay type: cell-based; details: 1.7 nM to 8,600 nM, 72 hours
Method: as §1, §2, §3

Compound | leakage of drug out of intact minicells once packaged [1] | sensitivity of cells to doxorubicin [2] | sensitivity of cells to doxorubicin [3]
N.N.[Cl][Pt][Cl] [cisplatin, Cisplatin] | did not leak out | – | –
COc1cccc2c1C(=O)c1c(O)c3c(c(O)c1C2=O)C[C@@](O)(C(=O)CO)C[C@@H]3O[C@H]1C[C@H](N)[C@H](O)[C@H](C)O1 [doxorubicin, Doxorubicin] | did not leak out | equally sensitive | equally sensitive

Reference: patent US11964021B2, “Bacterially derived, intact minicells for delivery of therapeutic agents to brain tumors” (EnGeneIC Molecular Delivery Pty Ltd, priority 2011, dated 2024)
